Reference: US11873298B2, “Compounds and uses thereof” (JANSSEN PHARMACEUTICA NV, priority 2017, dated 2024)

Tests used:
[1] = biological target: T1, SCD1 (Homo sapiens, UniProt O00767); experiment: Growth inhibition of humanized yeast strain expressing SCD1 as sole desaturase; format: cell-based; details: humanized yeast strain, 40 h
T1 construct: host or cells: S. cerevisiae ole1Δ strain (W303 pdr1Δ pdr3Δ background), plasmid pRS316 with TDH3 promoter and CYC1 terminator
T1 sequence (O00767 1-359): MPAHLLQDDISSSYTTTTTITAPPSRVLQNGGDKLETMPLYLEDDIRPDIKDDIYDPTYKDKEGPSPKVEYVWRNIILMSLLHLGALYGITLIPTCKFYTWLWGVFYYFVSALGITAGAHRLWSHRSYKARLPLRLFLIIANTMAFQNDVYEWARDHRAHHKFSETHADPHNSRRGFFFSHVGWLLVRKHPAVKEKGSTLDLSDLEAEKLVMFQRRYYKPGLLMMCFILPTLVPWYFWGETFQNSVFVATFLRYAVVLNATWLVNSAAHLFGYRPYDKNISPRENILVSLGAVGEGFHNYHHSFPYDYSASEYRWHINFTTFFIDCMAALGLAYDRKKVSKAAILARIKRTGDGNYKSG
Outline: (§1)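 Yeast ole1Δ strain (W303 pdr1Δ pdr3Δ background) carrying plasmid-borne Ole1, SCD1 or SCD5 as sole desaturase was grown in uracil-lacking media, pre-cultured in raffinose for 6 h, then seeded in galactose medium with compound in DMSO. Growth was read as OD600 after 30° C. incubation: 24 h for Ole1, 40 h for SCD1/SCD5.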

[2] = biological target: T2, SCD5 (Homo sapiens, UniProt Q86SK9); experiment: Growth inhibition of humanized yeast strain expressing SCD5 as sole desaturase; format: cell-based; details: humanized yeast strain, 40 h
T2 construct: host or cells: S. cerevisiae ole1Δ strain (W303 pdr1Δ pdr3Δ background), plasmid pRS316 with TDH3 promoter and CYC1 terminator
T2 sequence (Q86SK9 1-330): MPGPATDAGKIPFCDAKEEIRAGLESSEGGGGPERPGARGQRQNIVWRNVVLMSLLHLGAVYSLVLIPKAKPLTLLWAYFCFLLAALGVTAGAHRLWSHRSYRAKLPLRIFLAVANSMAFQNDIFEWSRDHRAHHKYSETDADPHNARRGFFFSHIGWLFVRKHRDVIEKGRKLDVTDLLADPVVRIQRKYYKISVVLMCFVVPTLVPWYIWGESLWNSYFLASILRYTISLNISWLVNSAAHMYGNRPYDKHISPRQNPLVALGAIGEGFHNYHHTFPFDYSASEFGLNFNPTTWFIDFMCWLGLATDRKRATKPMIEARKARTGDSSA
Outline: as §1

Row | SMILES | IC50 [1] [µM] | IC50 [2] [µM]
1 | CC(=O)N1CC(n2ncc3ccc(-c4nc(N5CCN(C(=O)OC(C)(C)C)CC5)no4)cc32)C1 [Compound 915] | > 45 | 10.1
2 | CC1(C(=O)N2CCN(c3nc(-c4ccc5cnn(C6COC6)c5c4)no3)CC2)CCCO1 (centres unmarked) [Compound 916] | 1.96 | 0.01
3 | COC(=O)N1CCC(c2noc(-c3ccc4cnc(C5COC5)n4c3)n2)CC1 [Compound 917] | > 45 | 0.1
4 | CC(C)(C)OC(=O)N1CCC(c2noc(-c3ccc4cnn(C5CNC5)c4c3)n2)CC1 [Compound 918] | > 45 | 0.8
5 | CC(C)n1ncc2cnc(-c3cc(C4CCN(C(=O)OC5(C)CC5)CC4)on3)cc21 [Compound 919] | > 45 | 0.18
6 | Cc1nn(C)c2cc(-c3nc(C4CCN(C(=O)C5CC5)CC4)no3)ccc12 [Compound 920] | 11.7 | 0.1
7 | COC(=O)N1CCC(c2noc(-c3ccc4c(C)nn(C)c4c3)n2)CC1 [Compound 921] | > 45 | 3.4
8 | Cc1nn(C)c2cc(-c3nc(C4CCN(S(=O)(=O)C5CC5)CC4)no3)ccc12 [Compound 922] | > 45 | 6.56
9 | Cc1nn(C)c2cc(-c3nc(C4CCN(C(=O)OC5CCC5)CC4)no3)ccc12 [Compound 923] | > 45 | > 45
10 | CC1(C(=O)N2CCN(c3nc(-c4ccc5cnn(C6COC6)c5c4)no3)CC2)CCOC1 (centres unmarked) [Compound 924] | > 45 | 4.09
11 | CC(C)(C)OC(=O)N1CC(n2ncc3ccc(-c4nc(N5CCn6c(Cl)cnc6C5)no4)cc32)C1 [Compound 925] | > 45 | > 45
12 | CC(C)(C)OC(=O)N1CC(c2noc(-c3ccc4cnn(C5COC5)c4c3)n2)C1 [Compound 926] | > 45 | > 45
13 | CC(C)C(=O)N1CCC(c2noc(-c3ccc4cnn(C5COC5)c4c3)n2)CC1 [Compound 927] | > 45 | 0.14
14 | COC(=O)N1CC(c2noc(-c3ccc4cnn(C5COC5)c4c3)n2)C1 [Compound 928] | > 45 | 0.01
15 | COCCOC(=O)N1CCC(c2noc(-c3ccc4cnn(C5COC5)c4c3)n2)CC1 [Compound 929] | > 45 | 4.42
16 | CCC(=O)N1CCN(c2nc(-c3ccc4cnn(C5CN(C(=O)CC)C5)c4c3)no2)CC1 [Compound 930] | > 45 | 0.2
17 | CC(C)(C)OC(=O)N1CCC(c2noc(-c3cc4c(cnn4C4COC4)cc3F)n2)CC1 [Compound 931] | > 45 | > 45
18 | CC(C)(C)OC(=O)N1CCN(c2noc(-c3ccc4cnn(C5CNC5)c4c3)n2)CC1 [Compound 932] | > 45 | 0.01
19 | CC(C)(C)OC(=O)N1CCC(c2noc(-c3ccc4cnn([C@H]5C[C@@H](O)C5)c4c3)n2)CC1 [Compound 933] | > 45 | 0.2
20 | Clc1cnc2n1CCN(c1noc(-c3ccc4cnn(C5CNC5)c4c3)n1)C2 [Compound 934] | > 45 | 0.01

Row | SMILES | IC50 [1] [µM] | IC50 [2] [µM]
21 | CC(=O)N1CC(n2ncc3ccc(-c4nc(N5CCn6c(Cl)cnc6C5)no4)cc32)C1 [Compound 935] | > 45 | > 45
22 | COC(=O)N1CCC(c2nc(-c3ccc4cn[nH]c4c3)no2)CC1 [Compound 936] | > 45 | 3.45
23 | CC(=O)N1CC(n2ncc3ccc(-c4nc(N5CCNCC5)no4)cc32)C1 [Compound 937] | > 45 | > 45
24 | Cc1nn(C)c2cc(-c3nc(C4CCN(C(=O)C(C)C)CC4)no3)ccc12 [Compound 938] | > 45 | > 45
25 | CCC(=O)N1CCC(c2noc(-c3ccc4c(C)nn(C)c4c3)n2)CC1 [Compound 939] | > 45 | 10.9
26 | CCC(=O)N1CCC(c2nc(-c3ccc4onc(C(C)C)c4c3)no2)CC1 [Compound 940] | > 45 | 31.2
27 | CC(C)c1noc2ccc(-c3noc(C4CCN(C(=O)C5CC5)CC4)n3)cc12 [Compound 941] | > 45 | 20.4
28 | CC(C)(C)OC(=O)N1CCC(c2nc(-c3ccc4cnc(C#N)n4c3)no2)CC1 [Compound 942] | > 45 | 9.16
29 | CC(C)(C)OC(=O)N1CCN(c2noc(-c3ccnc(N4CCOCC4)c3)n2)CC1 [Compound 943] | > 45 | > 45
30 | COC(=O)N1CCC(c2noc(-c3cc4c(cnn4C4COC4)cc3F)n2)CC1 [Compound 944] | > 45 | 2.22
31 | COC(=O)N1CCC(c2noc(-c3ccc4cnn([C@H]5C[C@@H](O)C5)c4c3)n2)CC1 [Compound 945] | > 45 | 5.29
32 | COC(=O)N1CCN(c2noc(-c3ccc4cnn(C5CNC5)c4c3)n2)CC1 [Compound 946] | > 45 | 4.11
33 | COC(=O)N1CCN(c2noc(-c3ccnc(NC4COC4)c3)n2)CC1 [Compound 947] | > 45 | > 45
34 | COC(=O)N1CCC(c2noc(-c3ccc4cnn(C5CNC5)c4c3)n2)CC1 [Compound 948] | > 45 | > 45
35 | Cc1ncc2n1CCN(c1noc(-c3ccc4cnn(C5COC5)c4c3)n1)C2 [Compound 949] | > 45 | > 45
36 | COC(=O)N1CCC(c2nc(-c3ccc4cnn(C5CNC5)c4c3)no2)CC1 [Compound 950] | > 45 | > 45
37 | COC(=O)N1CCC(c2nc(-c3ccc4cnn(C5CN(C(=O)OC(C)(C)C)C5)c4c3)no2)CC1 [Compound 951] | > 45 | > 45
38 | O=C(N1CCC(c2noc(-c3ccc4cnn(C5COC5)c4c3)n2)CC1)C1(F)CC1 [Compound 952] | 15.6 | 9.22
39 | O=C1CC(n2ncc3ccc(-c4nc(N5CCn6c(Cl)cnc6C5)no4)cc32)C1 [Compound 953] | > 45 | 0.01
40 | O=C(N1CC(c2noc(-c3ccc4cnn(C5COC5)c4c3)n2)C1)C(F)(F)F [Compound 954] | > 45 | 2.86

Row | SMILES | IC50 [1] [µM] | IC50 [2] [µM]
41 | CC(C)(C)OC(=O)N1CC=C(c2ccc(-c3ccc4cnn(C5COC5)c4c3)cn2)CC1 [Compound 955] | > 45 | > 45
42 | C[C@H]1CN(c2noc(-c3ccc4cnn(C5COC5)c4c3)n2)CCN1C(=O)OC(C)(C)C [Compound 956] | > 45 | 2.46
43 | O=C(c1ccccc1F)N1CCN(c2noc(-c3ccc4cnn(C5CNC5)c4c3)n2)CC1 [Compound 957] | 27.9 | 0.01
44 | O[C@H]1C[C@@H](n2ncc3ccc(-c4nc(N5CCn6c(Cl)cnc6C5)no4)cc32)C1 [Compound 958] | > 45 | 34.5
45 | C[C@@H]1CN(c2noc(-c3ccc4cnn(C5COC5)c4c3)n2)CCN1C(=O)OC(C)(C)C [Compound 959] | > 45 | > 45
46 | COC(=O)N1CCN(c2noc(-c3ccc4cnn(C5CN(C)C5)c4c3)n2)CC1 [Compound 960] | 20.4 | 0.01
47 | O=C(C1CCC1)N1CCCN(c2noc(-c3ccc4cnn(C5COC5)c4c3)n2)CC1 [Compound 961] | > 45 | > 45
48 | CCC(=O)N1CCCN(c2noc(-c3ccc4cnn(C5COC5)c4c3)n2)CC1 [Compound 962] | > 45 | 0.01
49 | COC(=O)N1CCCN(c2noc(-c3cc(F)c4cnn(C5COC5)c4c3)n2)CC1 [Compound 963] | > 45 | 0.16
50 | CCC1(C(=O)N2CCC(c3noc(-c4ccc5cnn(C6COC6)c5c4)n3)CC2)CC1 [Compound 964] | 0.31 | 0.03
51 | O=C(CC1CC1)N1CCCN(c2noc(-c3ccc4cnn(C5COC5)c4c3)n2)CC1 [Compound 965] | > 45 | 0.01
52 | CC(C)(C)OC(=O)N1CCC(c2ccc(-c3ccc4cnn(C5COC5)c4c3)cn2)CC1 [Compound 966] | > 45 | 0.15
53 | CC(C)(C)OC(=O)N1CCC(c2ccc(-c3ccc4cnn(C5COC5)c4c3)cc2)CC1 [Compound 967] | > 45 | 1.52
54 | CC(C)c1noc2ccc(-c3noc(C4CCN(C(=O)C5CCC5)CC4)n3)cc12 [Compound 968] | > 45 | 2.83
55 | O=S(=O)(C1CCC1)N1CCC(c2noc(-c3ccc4cnn(C5COC5)c4c3)n2)CC1 [Compound 969] | > 45 | 1.42
56 | O=C(N1CCN(c2noc(-c3ccc4cnn(C5COC5)c4c3)n2)CC1)C1(F)CC1 [Compound 970] | 8.5 | 0.00196
57 | CC(C)(C)OC(=O)N1CCC(c2nnc(-c3ccc4cnn(C5CCOC5)c4c3)o2)CC1 (centres unmarked) [Compound 971] | > 45 | 0.089
58 | O=C(c1ncccc1F)N1CCN(c2noc(-c3ccc4cnn(C5COC5)c4c3)n2)CC1 [Compound 972] | > 45 | 4.44
